Reference: ChEMBL document CHEMBL2074231, “Influence of molecular structure on substrate binding to the human organic cation transporter, hOCT1” (Mol Pharmacol, 2003)

Biological target: T1, Solute carrier family 22 member 1 (Homo sapiens, UniProt O15245)
T1 sequence (O15245 whole entry): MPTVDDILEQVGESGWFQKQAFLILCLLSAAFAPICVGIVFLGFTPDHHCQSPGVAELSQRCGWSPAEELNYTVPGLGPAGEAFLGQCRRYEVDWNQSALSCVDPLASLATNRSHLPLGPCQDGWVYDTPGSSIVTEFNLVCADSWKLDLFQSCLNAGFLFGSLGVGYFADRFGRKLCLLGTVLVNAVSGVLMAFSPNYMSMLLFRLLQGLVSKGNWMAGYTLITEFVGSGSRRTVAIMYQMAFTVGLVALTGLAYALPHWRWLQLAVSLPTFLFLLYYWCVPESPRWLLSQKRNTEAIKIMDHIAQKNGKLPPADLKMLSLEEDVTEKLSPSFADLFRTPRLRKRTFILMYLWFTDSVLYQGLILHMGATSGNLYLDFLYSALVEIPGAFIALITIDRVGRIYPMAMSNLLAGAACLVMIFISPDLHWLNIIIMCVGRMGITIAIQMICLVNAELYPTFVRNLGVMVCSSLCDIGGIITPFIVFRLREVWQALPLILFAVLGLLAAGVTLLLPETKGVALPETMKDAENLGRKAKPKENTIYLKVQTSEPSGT
Assay: TP_TRANSPORTER: inhibition of TEA uptake in OCT1-expressing HeLa cells

IC50: 4.3 µM
SMILES: CN(C)CCCN1c2ccccc2Sc2ccc(Cl)cc21 [CHLORPROMAZINE]
